These results are taken from PMC8667918, “Synthesis and biological evaluation of halogenated phenoxychalcones and their corresponding pyrazolines as cytotoxic agents in human breast cancer” (Journal of Enzyme Inhibition and Medicinal Chemistry, 2021).

The test system of data set [1] is MCF-7 breast cancer cell line. In words: MTT assay, cytotoxicity against breast cancer cell line MCF-7. Particulars: for IC50: Homo sapiens, MCF7, 48 h, read-out: In vitro cytotoxicity IC50 MCF-7; for Selectivity index: ratio of IC50 on normal cells (MCF-10a) to cancer cells (MCF-7). As for the experimental part:
(§1) Human breast cancer cell line MCF-7 and normal breast cell line MCF-10a were obtained from American type culture collection, MCF-7 cells were cultured using Dulbecco’s Modified Eagle Medium DMEM (Invitrogen/Life Technologies) supplemented with 10% FBS (Hyclone), 10 µg/ml of insulin (Sigma), and 1% penicillin-streptomycin. MCF-10a cell line was cultured using DMEM medium supplemented with 10% FBS, 1% sodium pyruvate, 1% MEM NEAA, 20 ng/ml human epidermal growth factor (HEGF), 10 μg/ml insulin and 0.05 mM hydrocortisone. The cells were incubated at 37 °C in a humidified atmosphere of 5% CO2.
(§2) The anticancer effect of phenoxychalcones and N-acetylpyrazolines on the viability of both tumour and normal cells was evaluated using МТТ assay as a rapid colorimetric assay. It is based on the ability of mitochondrial dehydrogenases of viable cells to reduce yellow tetrazolium salt MTT to blue formazan in quantities proportional to the number of living cells. The cells were incubated with the medium alone or with the tested compounds at concentrations of 100 µM, 25 µM, 6.25 µM, 1.56 µM and 0.39 µM for 48 h. […] Then, 20 μL MTT solution was added to each well and mixed. After 4 h, the supernatants were removed and 100 μL DMSO was added to each well to dissolve the precipitate. The viability of cells was estimated by measuring the absorbance at 570 nm using a Bioline ELIZA plate reader. The cell viability percentage was calculated based on the absorbance ratio between cell culture treated with the compounds and the untreated control multiplied by 100. Selectivity index (SI) was calculated as the ratio of cytotoxicity (IC50) on normal cells (MCF-10a) to cancer cells (MCF-7).

The nature of data set [2]: MTT assay, cytotoxicity against normal breast cell line MCF-10a. Conditions: human, MCF-10a normal breast cells. As for the experimental part: as §1, §2
The test system of the next data set is MCF-7. Conditions: reported chalcones of Figure 1; cited from earlier work.
The next data set relates to leukemia. Details: method as in PMID 31927336, PMID 22503741. Conditions: reported chalcone of Figure 1; cited from earlier work.
The next data set deals with C6 and Hela cell lines. Set-up: method as in PMID 31927336, PMID 22503741. Particulars: reported chalcone of Figure 1; cited from earlier work.

`O=C(C=Cc1ccc(Oc2ccc(Br)cc2)cc1)c1ccc(Cl)cc1` [Compound 2a, 3–(4-(4-Bromophenoxy)phenyl)-1–(4-chlorophenyl)prop-2-en-1-one]: the melting point is 150 to 152 °C. Besides, in data set [1], the IC50 is 8.51 ± 0.16 µM and the Selectivity index was found to be 3.92. This compound came in with an IC50 at 48 h in data set [2] of 33.4 ± 1.34 µM.
For the compound `O=C(C=Cc1ccc(Oc2ccc(Br)cc2)cc1)c1ccc(Br)cc1` [Compound 2b, 3–(4-(4-Bromophenoxy)phenyl)-1–(4-bromophenyl)prop-2-en-1-one], the melting point was 164 to 166 °C. In addition, in data set [1], the IC50 is 13.3 ± 0.53 µM and the Selectivity index is on record as 1.91. Moreover, inhibition in data set [2] was half-maximal at 25.3 ± 1.17 µM (IC50 at 48 h).
Compound `O=C(C=Cc1ccc(Oc2ccc(Cl)cc2)cc1)c1ccc(Cl)cc1` [Compound 2d, 3–(4-(4-Chlorophenoxy)phenyl)-1–(4-chlorophenyl)prop-2-en-1-one] had a melting point of 120 to 122 °C. In data set [1], the IC50 was found to be 19.9 ± 0.66 µM and the Selectivity index amounted to 1.67. This compound had an IC50 at 48 h in data set [2] of 33.1 ± 1.42 µM.
With `O=C(C=Cc1ccc(Oc2ccc(Cl)cc2)cc1)c1ccc(Br)cc1` [Compound 2e, 1–(4-Bromophenyl)-3–(4-(4-chlorophenoxy)phenyl)prop-2-en-1-one], the melting point fell in the range of 143 to 145 °C. In data set [1], the IC50 came out at 44.2 ± 2.16 µM and the Selectivity index came to 0.50. Further, inhibition in data set [2] was half-maximal at 22.1 ± 1.08 µM (IC50 at 48 h).
For the compound `Cc1ccc(C(=O)C=Cc2ccc(Oc3ccc(Cl)cc3)cc2)cc1` [Compound 2f, 3–(4-(4-Chlorophenoxy)phenyl)-1-(p-tolyl)prop-2-en-1-one], the melting point lay within 136 to 138 °C. In data set [1], the IC50 stood at 1.87 ± 0.02 µM and the Selectivity index turned out to be 11.03. The “fold more active than 2e” value in data set [1] (MCF-7 IC50 compared with chalcone 2e) amounted to 23.6 fold. Further, in data set [1] (MCF-7 IC50 compared with chalcone 2d), the “fold more active than 2d” value is 10.6 fold. In data set [2], the concentration for half-maximal inhibition (IC50) at 48 h worked out at 20.6 ± 0.37 µM.
With `CC(=O)N1N=C(c2ccc(Cl)cc2)CC1c1ccc(Oc2ccc(Br)cc2)cc1` (stereo not drawn) [Compound 3a, 1–(5-(4–(4-Bromophenoxy)phenyl)-3–(4-chlorophenyl)-4,5-dihydro-1H-pyrazol-1-yl) ethanone], the melting point lay in the range of 142 to 144 °C. In data set [1], the IC50 amounted to 10.6 ± 0.39 µM and the Selectivity index worked out at 5.29. This compound gave an IC50 at 48 h in data set [2] of 55.8 ± 1.92 µM.
For `CC(=O)N1N=C(c2ccc(Br)cc2)CC1c1ccc(Oc2ccc(Br)cc2)cc1` (stereo not drawn) [Compound 3b, 1–(5-(4–(4-Bromophenoxy)phenyl)-3–(4-bromophenyl)-4,5-dihydro-1H-pyrazol-1-yl) ethanone], in that order: 138 to 140 °C, 17.2 ± 0.62 µM, 0.67 and 11.5 ± 0.47 µM.
For `CC(=O)N1N=C(c2ccc(C)cc2)CC1c1ccc(Oc2ccc(Br)cc2)cc1` (stereo not drawn) [Compound 3c, 1–(5-(4–(4-Bromophenoxy)phenyl)-3-(p-tolyl)-4,5-dihydro-1H-pyrazol-1-yl)ethanone], in that order: 141 to 143 °C, 7.42 ± 0.28 µM, 2.63 and 19.5 ± 0.69 µM.
For `CC(=O)N1N=C(c2ccc(Cl)cc2)CC1c1ccc(Oc2ccc(Cl)cc2)cc1` (stereo not drawn) [Compound 3d, 1–(5-(4–(4-Chlorophenoxy)phenyl)-3–(4-chlorophenyl)-4,5-dihydro-1H-pyrazol-1-yl) ethanone], in that order: 116 to 118 °C, 8.51 ± 0.27 µM, 5.37 and 45.7 ± 1.36 µM.
In turn, `CC(=O)N1N=C(c2ccc(Br)cc2)CC1c1ccc(Oc2ccc(Cl)cc2)cc1` (stereo not drawn) [Compound 3e, 1–(3-(4-Bromophenyl)-5–(4-(4-chlorophenoxy)phenyl)-4,5-dihydro-1H-pyrazol-1-yl) ethanone] showed a melting point of 117 to 119 °C. In data set [1], the IC50 worked out at 5.02 ± 0.22 µM and the Selectivity index was found to be 2.02. In data set [2], the IC50 at 48 h came to 10.1 ± 0.62 µM.
The matching figures for `CC(=O)N1N=C(c2ccc(C)cc2)CC1c1ccc(Oc2ccc(Cl)cc2)cc1` (stereo not drawn) [Compound 3f, 1–(5-(4–(4-Chlorophenoxy)phenyl)-3-(p-tolyl)-4,5-dihydro-1H-pyrazol-1-yl) ethanone]: 118 to 120 °C, 4.77 ± 0.13 µM, 2.55 and 12.2 ± 0.79 µM.
Regarding `COc1ccc(C(=O)/C=C/c2ccc(Cl)cc2)c(Oc2cc(OC)c(OC)c(OC)c2)c1` [III], the IC50 in the data set on MCF-7 is 4.39 ± 0.26 µM.
In the case of `Cc1ccc(C(=O)/C=C/c2cccc(Cl)c2Oc2c([N+](=O)[O-])cc(C(F)(F)F)cc2[N+](=O)[O-])cc1` [II], in the data set with MCF-7, the IC50 was 0.03 ± 0.002 µM.
As for `O=C(/C=C/c1ccc(Br)cc1)c1c(O)cccc1OCc1ccccc1` [IV], the activity against leukemia result in the data set with leukemia is recorded as “Effective against leukemia”.
As for `CCn1cc(/C=C/C(=O)c2ccc(Br)cc2)c(-c2ccc(OC)cc2)n1` [IX], the IC50 in the data set with MCF-7 is 18.7 µM.
`COc1ccc(/C=C/C(=O)c2ccc(OC)cc2Oc2cc(OC)c(OC)c(OC)c2)cc1` [I]: the IC50 in the data set on MCF-7 was 3.44 ± 0.19 µM.
Consider `O=C(/C=C/c1cc(Br)ccc1O)c1ccc(Br)cc1` [VIII], for which, in the data set with MCF-7, the IC50 is 3.82 ± 0.022 µM.
In the case of `Nc1ccc(C(=O)/C=C/c2cccc(Cl)c2)cc1` [VII], in the data set with MCF-7, the IC50 is 34.2 ± 6.4 µM.
For `O=C(/C=C/c1ccc(Oc2ccc(Cl)cc2)cc1)c1ccc(N2CCOCC2)cc1` [V], the “activity against C6 and Hela cell lines” value in the data set on C6 and Hela cell lines is “Effective against C6 and Hela cell lines”.
